Consider 5 compounds from paper PMC3515654 (ChemMedChem, 2011).

Series [1] addresses D1-like dopamine receptors (Sus scrofa, UniProt P50130). It counts as binding. The conditions noted are these: porcine striatum; for Fold D1-like Selectivity: ratio of D2-like Ki to D1-like Ki.
Series [2] concerns the target D2-like dopamine receptors (Sus scrofa, UniProt A0ACM8QMZ9). The conditions noted are these: porcine striatal binding, D1-like vs D2-like.
The nature of series [3]: pKa of synthetic acids, used for separation by titration. It is filed as physicochemical.

Sequence of D1-like dopamine receptors (P50130 whole entry): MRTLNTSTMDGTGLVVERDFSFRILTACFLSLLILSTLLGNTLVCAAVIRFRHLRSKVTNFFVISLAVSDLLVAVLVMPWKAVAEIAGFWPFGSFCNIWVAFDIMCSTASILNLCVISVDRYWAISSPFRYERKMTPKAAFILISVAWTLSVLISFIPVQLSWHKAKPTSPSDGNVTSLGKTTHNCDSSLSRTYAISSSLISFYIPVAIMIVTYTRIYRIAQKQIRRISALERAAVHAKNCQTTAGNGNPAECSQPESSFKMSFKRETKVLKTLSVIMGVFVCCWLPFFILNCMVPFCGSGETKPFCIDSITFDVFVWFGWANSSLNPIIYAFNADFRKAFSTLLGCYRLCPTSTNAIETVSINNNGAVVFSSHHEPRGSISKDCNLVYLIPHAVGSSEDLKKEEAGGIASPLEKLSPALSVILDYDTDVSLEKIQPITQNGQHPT
Sequence of D2-like dopamine receptors (A0ACM8QMZ9 1-443): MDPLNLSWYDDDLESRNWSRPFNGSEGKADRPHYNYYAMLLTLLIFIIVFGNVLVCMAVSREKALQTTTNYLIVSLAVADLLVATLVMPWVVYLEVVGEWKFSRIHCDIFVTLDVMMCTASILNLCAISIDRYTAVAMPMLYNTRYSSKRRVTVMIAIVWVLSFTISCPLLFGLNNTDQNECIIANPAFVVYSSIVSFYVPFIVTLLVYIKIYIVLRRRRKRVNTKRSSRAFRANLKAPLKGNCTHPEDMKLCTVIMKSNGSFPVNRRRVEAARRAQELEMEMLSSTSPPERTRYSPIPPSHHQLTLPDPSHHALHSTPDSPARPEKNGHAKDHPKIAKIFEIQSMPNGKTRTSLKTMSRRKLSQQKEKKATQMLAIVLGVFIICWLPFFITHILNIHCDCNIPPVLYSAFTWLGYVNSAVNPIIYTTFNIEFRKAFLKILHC

Turning to `Br.NC[C@H]1C[C@@H](C23CC4CC(CC(C4)C2)C3)Cc2c1ccc(O)c2O` (relative stereo) [3c, Cis-5-(aminomethyl)-7-adamantyl-5,6,7,8-tetrahydronaphthalene-1,2-diol hydrobromide], the “Fold higher binding affinity at D1-like receptors compared to 2c” value in series [1] (relative to 2c) is recorded as roughly 20 fold. Moreover, the “Fold D1-like Selectivity” value in series [1] is 55 fold.

Turning to `NC[C@@H]1O[C@H](C23CC4CC(CC(C4)C2)C3)Cc2c1ccc(O)c2O` [1c, reference compound], the “Fold D1-like Selectivity” value in series [1] was found to be 480 fold.

As for `NC[C@@H]1O[C@H](c2ccccc2)Cc2c1ccc(O)c2O` [1d, reference compound], the “Fold D1-like Selectivity” value in series [1] was found to be 92 fold.

For the compound `Cl.NCC1CCOc2c1ccc(O)c2O` (stereo not drawn) [2a, 7,8-Dihydroxy-4-aminomethylchroman hydrochloride], in series [2], the “Receptor subtype selectivity” value is “selectivity for D2-like receptors”.

Regarding `COc1cccc(C2OC(=O)CC2C(=O)O)c1OC` (stereo not drawn) [compound 18, 2-(2,3-Dimethoxyphenyl)-5-oxo-tetrahydrofuran-3-carboxylic acid], the pKa (commonly the negative logarithm of the acid dissociation constant) in series [3] was roughly 3.6.
